According to patent publication US20260297038A1, “ORTHO-PHTHALALDEHYDE-FUNCTIONALIZED ULTRAVIOLETABSORBERS AND VISIBLE CHROMOPHORES FOR SEMI-PERMANENT TOPICAL APPLICATIONS” (The Regents of the University of Colorado, a body corporate, priority 2023, published 2026):

Columns and labels:
[1] = system: stratum corneum of excised porcine skin; test: Semi-permanent retention of topical mark on excised porcine skin after repeated washing, and localization after bisection (FIG. 7); settings: for retention of the mark on skin after washing: gel dried 10 minutes, washed after 3 hours, washing procedure repeated five times
Excerpt: FIG. 7 is a set of annotated visible and ultraviolet photographs of excised porcine skin areas exposed to the composition described in Example 8 according to the method of Example 10, labeled o-phthalaldehyde, accompanied by a positive control based on genipin and three negative controls based on a commercially available organic and mineral SPF-30 sunscreens and permanent black marker, taken before the skin was washed, then after one wash, after five washes, and after five washes and bisection.
20 mg of 3,6-dihydroxy-4,5-dimethyl-1,2-benzenedicarboxaldehyde was mixed directly into 230 mg of a gel comprising 79.715% v/v water, 20% v/v ethanol, and 0.285% v/v carbomer 940 and stirred mechanically until a homogenous gel was obtained.
Freshly excised porcine skin was allowed to hydrate in reverse-osmosis purified water for 4 h, then it was cut into rectangular samples and stored for 24 hours in a closed container on top of a paper towel saturated with a solution of 90% water and 10% glycerol. The stratum corneum was wiped with a cotton gauze pad saturated with an aqueous solution of lysine at a concentration of 2 wt %. The gel composition prepared as described in […] was scooped onto a spatula, which was used to apply a thin layer of the gel in a circle of approximately 1-cm diameter on the stratum corneum. After allowing the gel to dry on the skin for 10 minutes, the skin sample was returned to the closed container with the saturated paper towel to allow the skin to remain hydrate while the reaction continued to develop. After 3 hours, the skin was removed and washed liberally by scrubbing the skin with a loofah saturated with a soap solution of 10% alcanox in water until a foam lather was formed, rinsed with reverse-osmosis water, and wiped with a paper towel saturated with a 70% isopropanol solution, and finally patted dry with a paper towel. This washing procedure was repeated five times.

[2] = Ultraviolet-visible absorption spectra of solutions of o-phthalaldehyde ultraviolet absorbers vs the parent carboxylic acids (FIG. 4); format: physicochemical; settings: solution; for visible absorption introduced by the 3-(3,4-diformylphenyl)propyl moiety: compared with corresponding carboxylic acids
Excerpt: FIG. 4 is a set of graphs of the ultraviolet-visible absorption spectra of solutions of (a) 4-((3-(2H-benzo[d][1,2,3]triazol-2-yl)-2-hydroxy-5-methylbenzyl)oxy)phthalaldehyde, prepared according to the process described in example 3, and 3-(3-(benzotriazole-2-yl)-5-tert-butyl-4-hydroxyphenyl)propanoic acid, (b) 3-(3-(2H-benzo[d][1,2,3]triazol-2-yl)-5-(tert-butyl)-4-hydroxyphenyl)propanoate, prepared according to the process described in Example 4, and 2-(4-diethylamino-2-hydroxybenzoyl)benzoic acid, (c) 3-(3,4-diformylphenyl)propyl 3-(4-methoxyphenyl)acrylate, prepared according to the process described in example 5, and 4-methoxycinnamic acid.

Compound	localization / penetration in skin layers ([1]; excessively washed, bisected through to the subcutis)	retention of the mark on skin after washing [1]	alteration of the absorption profiles of the ultraviolet-absorbing moieties by the 3-(3,4-diformylphenyl)propyl moiety [2]	visible absorption introduced by the 3-(3,4-diformylphenyl)propyl moiety [2]
Cc1c(C)c(O)c(C=O)c(C=O)c1O [3,6-dihydroxy-4,5-dimethyl-1,2-benzenedicarboxaldehyde]	localized in the stratum corneum and did not penetrate to lower epidermal or dermal layers of the skin	retained		
COC(=O)C1=CO[C@@H](O)[C@@H]2C(CO)=CC[C@H]12 [genipin, reference compound]		retained		
COc1ccc(C=CC(=O)OCCCc2ccc(C=O)c(C=O)c2)cc1 [Example 5, 3-(3,4-diformylphenyl)propyl 3-(4-methoxyphenyl)acrylate]			only minor alteration of the absorption profiles	without introducing substantial visible absorption
CCN(CC)c1ccc(C(=O)c2ccccc2C(=O)OCCCc2ccc(C=O)c(C=O)c2)c(O)c1 [Example 4, 3-(3,4-diformylphenyl)propyl 2-(4-(diethylamino)-2-hydroxybenzoyl)benzoate]			only minor alteration of the absorption profiles	without introducing substantial visible absorption
CC(C)(C)c1cc(CCC(=O)OCCCc2ccc(C=O)c(C=O)c2)cc(-n2nc3ccccc3n2)c1O [Example 3, 3-(3,4-diformylphenyl)propyl 3-(3-(2H-benzo[d][1,2,3]triazol-2-yl)-5-(tert-butyl)-4-hydroxyphenyl)propanoate]			only minor alteration of the absorption profiles	without introducing substantial visible absorption
